Assays:
[1] = tested on: HEK293 cells cotransfected with the FOP control vector; test: HEK293 FOP assay (control reporter with non-functional TCF elements); assay type: cell-based; conditions: Homo sapiens, 16 hours
Summary of the method: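 Stable HEK293 line carrying FOP control reporter (randomized non-functional TCF sites, with pcDNA3), Geneticin-selected, plated 24 h before assay. Stimulated with recombinant human Wnt-3a (2500-5 ng/ml) and compounds 50 μM–15 nM (3.16-fold steps) in CAFTY buffer pH 7.4 with 2 mM Ca2+, 0.01% BSA, run parallel to TOP line.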

TNKS1 = target: T1, TNKS1 (Homo sapiens, UniProt O95271); test: TNKS1 Assay B (auto-parsylation, [3H]-NAD+ SPA); assay type: biochemical; conditions: 6 nM TNKS1, auto-parsylation, over night at room temperature
T1 construct: purchased BPS Bioscience, San Diego, USA 80579 (TNKS1 Histone Ribosylation Assay Kit)
T1 sequence (O95271 1-1327): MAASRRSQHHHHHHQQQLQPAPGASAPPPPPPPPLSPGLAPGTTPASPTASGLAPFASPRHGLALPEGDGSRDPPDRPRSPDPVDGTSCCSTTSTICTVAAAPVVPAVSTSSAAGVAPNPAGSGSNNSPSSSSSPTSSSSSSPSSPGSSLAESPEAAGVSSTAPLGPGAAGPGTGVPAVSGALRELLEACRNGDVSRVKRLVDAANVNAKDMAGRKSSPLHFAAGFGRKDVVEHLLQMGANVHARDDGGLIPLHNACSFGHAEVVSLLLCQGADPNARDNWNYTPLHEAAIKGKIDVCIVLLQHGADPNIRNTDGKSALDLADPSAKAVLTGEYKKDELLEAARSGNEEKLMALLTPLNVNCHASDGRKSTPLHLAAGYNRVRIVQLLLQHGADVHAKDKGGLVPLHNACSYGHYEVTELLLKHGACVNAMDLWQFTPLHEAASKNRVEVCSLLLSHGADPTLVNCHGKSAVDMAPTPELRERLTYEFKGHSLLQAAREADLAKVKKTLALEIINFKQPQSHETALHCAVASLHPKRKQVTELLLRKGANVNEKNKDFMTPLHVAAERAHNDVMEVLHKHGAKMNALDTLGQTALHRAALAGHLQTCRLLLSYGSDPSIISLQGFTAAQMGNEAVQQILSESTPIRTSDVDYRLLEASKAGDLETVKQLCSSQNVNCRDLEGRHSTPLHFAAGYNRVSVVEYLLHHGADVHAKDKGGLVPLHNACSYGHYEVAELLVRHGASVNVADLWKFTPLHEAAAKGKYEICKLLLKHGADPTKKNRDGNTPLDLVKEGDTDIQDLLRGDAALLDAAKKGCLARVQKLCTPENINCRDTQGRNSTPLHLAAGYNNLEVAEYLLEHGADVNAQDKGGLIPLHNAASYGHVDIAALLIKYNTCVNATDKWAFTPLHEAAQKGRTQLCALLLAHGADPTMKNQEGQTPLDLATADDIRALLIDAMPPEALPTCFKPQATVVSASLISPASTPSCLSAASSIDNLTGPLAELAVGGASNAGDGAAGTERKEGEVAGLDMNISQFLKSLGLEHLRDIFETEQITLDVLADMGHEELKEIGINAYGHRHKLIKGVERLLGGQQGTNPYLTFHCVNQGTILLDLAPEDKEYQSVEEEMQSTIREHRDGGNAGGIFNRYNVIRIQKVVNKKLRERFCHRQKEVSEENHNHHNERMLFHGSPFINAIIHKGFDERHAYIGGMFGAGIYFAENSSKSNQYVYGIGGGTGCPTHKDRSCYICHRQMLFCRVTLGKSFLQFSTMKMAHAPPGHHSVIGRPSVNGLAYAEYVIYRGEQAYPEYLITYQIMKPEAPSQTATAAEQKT

SMILES	IC50 (TNKS1) [nM]	IC50 [1] [nM]
Cc1cc(C(C)(C)C)n2ncc(C(=O)N[C@H]3CC[C@H](C(=O)Nc4ccc(F)cc4Cl)CC3)c2n1 [Example 60, 7-tert-butyl-N-{trans-4-[(2-chloro-4-fluorophenyl)carbamoyl]cyclohexyl}-5-methylpyrazolo[1,5-a]pyrimidine-3-carboxamide]	> 10000	24000
CN1CCN(c2ccc3ncc(C(=O)N[C@H]4CC[C@H](C(=O)Nc5ccc(F)cc5Cl)CC4)n3n2)CC1 [Example 49, N-{trans-4-[(2-chloro-4-fluorophenyl)carbamoyl]cyclohexyl}-6-(4-methylpiperazin-1-yl)imidazo[1,2-b]pyridazine-3-carboxamide]	400	32000
COC(=O)c1cc(C)nc2c(C(=O)N[C@H]3CC[C@H](C(=O)Nc4ccc(F)cc4Cl)CC3)cnn12 [Example 352, methyl 3-({trans-4-[(2-chloro-4-fluorophenyl)carbamoyl]cyclohexyl}carbamoyl)-5-methylpyrazolo[1,5-a]pyrimidine-7-carboxylate]	350	≥ 50000
COC(=O)c1cc(C)nc2c(C(=O)N[C@H]3CC[C@H](C(=O)Nc4c(F)cc(F)cc4Cl)CC3)cnn12 [Example 351, methyl 3-({trans-4-[(2-chloro-4,6-difluorophenyl)carbamoyl]cyclohexyl}carbamoyl)-5-methylpyrazolo[1,5-a]pyrimidine-7-carboxylate]	150	≥ 50000
COC(C)(C)CNC(=O)c1nc[nH]c1C(=O)N[C@H]1CC[C@H](C(=O)Nc2ccc(F)cc2Cl)CC1 [Example 73, N^5-{trans-4-[(2-chloro-4-fluorophenyl)carbamoyl]cyclohexyl}-N^4-(2-methoxy-2-methylpropyl)-1H-imidazole-4,5-dicarboxamide]	270	19000
CNC(=O)c1[nH]cnc1C(=O)N[C@@H]1CC[C@@H](C(=O)Nc2ccc(F)cc2Cl)CC1(F)F (stereo in doubt) [Example 32, N^4-{(trans)-4-[(2-chloro-4-fluorophenyl)carbamoyl]-2,2-difluorocyclohexyl}-N^5-methyl-1H-imidazole-4,5-dicarboxamide]	360	≥ 50000
O=C(NC[C@@H]1CCCO1)c1nc[nH]c1C(=O)N[C@H]1CC[C@H](C(=O)Nc2ccc(F)cc2Cl)CC1 [Example 79, N^5-{trans-4-[(2-chloro-4-fluorophenyl)carbamoyl]cyclohexyl}-N^4-[(2S)-tetrahydrofuran-2-ylmethyl]-1H-imidazole-4,5-dicarboxamide]	170	43000
CNC(=O)c1ncoc1C(=O)N[C@H]1CC[C@H](C(=O)Nc2ccc(F)cc2Cl)CC1 [Example 29, N^5-{trans-4-[(2-chloro-4-fluorophenyl)carbamoyl]cyclohexyl}-N^4-methyl-1,3-oxazole-4,5-dicarboxamide]	650	≥ 50000
O=C(NCC1CCCO1)c1nc[nH]c1C(=O)N[C@H]1CC[C@H](C(=O)Nc2c(F)cc(F)cc2Cl)CC1 (stereo in doubt) [Example 71, N^5-{trans-4-[(2-chloro-4,6-difluorophenyl)carbamoyl]cyclohexyl}-N^4-[(2R)-tetrahydrofuran-2-ylmethyl]-1H-imidazole-4,5-dicarboxamide]	180	23000

Now those with a lower IC50 (TNKS1), led by results:

IC50 (TNKS1) [nM]	SMILES	IC50 [1] [nM]
62	O=C(NC[C@H]1CCCO1)c1nc[nH]c1C(=O)N[C@H]1CC[C@H](C(=O)Nc2ccc(F)cc2Cl)CC1 [Example 80, N^5-{trans-4-[(2-chloro-4-fluorophenyl)carbamoyl]cyclohexyl}-N^4-[(2R)-tetrahydrofuran-2-ylmethyl]-1H-imidazole-4,5-dicarboxamide]	23000
68	CNC(=O)c1nc[nH]c1C(=O)N[C@H]1CC[C@H](C(=O)Nc2c(F)cc(F)cc2Br)CC1 [Example 28, N^5-{trans-4-[(6-bromo-2,4-difluorophenyl)carbamoyl]cyclohexyl}-N^4-methyl-1H-imidazole-4,5-dicarboxamide]	≥ 50000
83	O=C(N[C@H]1CC[C@H](C(=O)Nc2ccc(F)cc2Cl)CC1)c1cnc2ccc(N3CCCC3)nn12 [Example 51, N-{trans-4-[(2-chloro-4-fluorophenyl)carbamoyl]cyclohexyl}-6-(pyrrolidin-1-yl)imidazo[1,2-b]pyridazine-3-carboxamide]	≥ 50000
6.2	Cc1cc(N2CC[C@]3(CC[C@@H](NC(=O)c4[nH]cnc4C(=O)NCCN4CCC(C)CC4)CC3)C2=O)c(Cl)cc1F [Example 290, N^5-[(trans)-2-(2-chloro-4-fluoro-5-methylphenyl)-1-oxo-2-azaspiro[4.5]dec-8-yl]-N^4-[2-(4-methylpiperidin-1-yl)ethyl]-1H-imidazole-4,5-dicarboxamide]	16000
78	O=C(NC[C@H]1CCCO1)c1nc[nH]c1C(=O)N[C@H]1CC[C@H](C(=O)Nc2c(F)cc(F)cc2Cl)CC1 [Example 70, N^5-{trans-4-[(2-chloro-4,6-difluorophenyl)carbamoyl]cyclohexyl}-N^4-[(2R)-tetrahydrofuran-2-ylmethyl]-1H-imidazole-4,5-dicarboxamide]	29000
100	COC(C)CNC(=O)c1nc[nH]c1C(=O)N[C@H]1CC[C@H](C(=O)Nc2ccc(F)cc2Cl)CC1 (stereo partly drawn) [Example 81, N^5-{trans-4-[(2-chloro-4-fluorophenyl)carbamoyl]cyclohexyl}-N^4-(2-methoxypropyl)-1H-imidazole-4,5-dicarboxamide]	6800

Source: patent publication US20180148418A1, “AMIDO-SUBSTITUTED CYCLOHEXANE DERIVATIVES” (Bayer Pharma Aktiengesellschaft, priority 2015, published 2018)
